These results are taken from patent publication US20070293493A1, “OXAZOLIDINONE ANTIBIOTICS AND DERIVATIVES THEREOF” (priority 2003, published 2007).

Structures are written as SMILES. In brackets after ≈: the same amount, converted by molar mass. Where two headings read alike, the source gives them in different places.

What all share (assay type): cell-based
The subject of test [1] is Enterococcus faecium VRQR (vancomycin resistant, quinolone resistant). Briefly: MIC, agar dilution method, Mueller-Hinton agar with 5% defibrinated horse blood. As to conditions: 35° C., 5% CO2, 24 hours. As for the experimental part:
(§1) The following in vitro results were obtained based on an agar dilution method except for C. pneumoniae. The activity is presented as the minimum inhibitory concentration (MIC).
(§2) Streptococci and enterococci were tested on Mueller-Hinton agar supplemented with 5% defibrinated horse blood, using an approximate inoculum of 1×10^4 cfu/spot an incubation temperature of 35° C. in an atmosphere of 5% CO2 for 24 hours. The MIC was defined as the lowest concentration at which no visible bacterial growth was observed.

The test system of test [2] is Streptococcus pneumoniae IID553. The description is as above. Particulars: 35° C., 5% CO2, 24 hours. As for the experimental part: as §1, §2
Test [3] relates to Streptococcus pneumoniae PRQR (penicillin resistant, quinolone resistant). The description is as above. Particulars: 35° C., 5% CO2, 24 hours. How it is done: as §1, §2
Test [4] has as its system Streptococcus pyogenes IID692. Described as above. Particulars: 35° C., 5% CO2, 24 hours. As for the experimental part:
as §1, §2

Test [5] concerns Moraxella catarrhalis ATCC25238. Briefly: MIC, agar dilution method, Mueller-Hinton agar. As to conditions: 35° C., 24 hours. As for the experimental part:
as §1
(§3) S. aureus and M. catarrhalis were tested on Mueller-Hinton agar, using an approximate inoculum of 1×10^4 cfu/spot an incubation temperature of 35° C. for 24 hours. The MIC was defined as the lowest concentration at which no visible bacterial growth was observed.
In general terms: Agar dilution tests growth on a series of plates holding different concentrations.

Test [6] has as its system Staphylococcus aureus CR (chloramphenicol resistant). Briefly: MIC, agar dilution method, Mueller-Hinton agar. Particulars: 35° C., 24 hours. As for the experimental part:
as §1, §3

The subject of test [7] is Staphylococcus aureus MR (methicillin resistant). Briefly: MIC, agar dilution method, Mueller-Hinton agar. As to conditions: 35° C., 24 hours. As for the experimental part: as §1, §3
Test [8] deals with Staphylococcus aureus Smith. Briefly: MIC, agar dilution method, Mueller-Hinton agar. Particulars: 35° C., 24 hours. As for the experimental part:
as §1, §3

The MIC is the smallest concentration in the dilution series that meets the test's criterion for growth inhibition. `N[C@@H]1[C@H]2CN(c3c(F)cc(N4C[C@H](Cn5ccnn5)OC4=O)cc3F)C[C@@H]12` [example 2, 1-[5(R)-3-[4-[(1α,5α,6α)-6-Amino-3-azabicyclo[3.1.0]hexan-3-yl]-3,5-difluorophenyl]-2-oxooxazolidin-5-ylmethyl]-1,2,3-triazole]: the MIC was 1 µg/mL (≈ 2.66 µM) in test [1] (read-out: MIC); 0.25 µg/mL (≈ 0.664 µM) in test [2] (read-out: MIC); 0.25 µg/mL (≈ 0.664 µM) in test [3] (read-out: MIC); 0.25 µg/mL (≈ 0.664 µM) in test [4] (read-out: MIC); 1 µg/mL (≈ 2.66 µM) in test [5] (read-out: MIC); 2 µg/mL (≈ 5.31 µM) in test [6] (read-out: MIC). Besides, the MIC in test [7] (read-out: MIC) was determined as 0.25 µg/mL (≈ 0.664 µM); in test [8] (read-out: MIC), 0.125 µg/mL (≈ 0.332 µM).
In the case of `N#C[C@@H]1[C@H]2C=C(c3ccc(N4C[C@H](Cn5ccnn5)OC4=O)cc3F)C[C@@H]12` [example 8, 1-[5(R)-3-[4-[(1α,5α,6α)-6-Cyanobicyclo[3.1.0]hex-2-en-3-yl]-3-fluorophenyl]-2-oxooxazolidin-5-ylmethyl]-1,2,3-triazole], the MIC in test [1] amounted to 0.25 µg/mL (≈ 0.684 µM); in test [2], 0.5 µg/mL (≈ 1.37 µM); in test [3], 0.25 µg/mL (≈ 0.684 µM); in test [4] it was 0.125 µg/mL (≈ 0.342 µM); in test [5] it was 1 µg/mL (≈ 2.74 µM); in test [6] it was 1 µg/mL (≈ 2.74 µM). Moreover, the MIC in test [7] came to 0.06 µg/mL (≈ 0.164 µM); in test [8], 0.125 µg/mL (≈ 0.342 µM).
